# According to US12194039B2, “Methods of treating heart failure by administering omecamtiv mecarbil” (Cytokinetics, Inc., priority 2020, dated 2025):
# Like-named read-outs stand apart in the source and are kept apart here.
# Test system: patients with or without more advanced HF
# Type: in vivo, human
# Details: for KCCQ total symptom score (TSS), increase: inpatient; for KCCQ total symptom score (TSS), increase / KCCQ total symptom score (TSS), decrease: vs placebo; for KCCQ total symptom score (TSS), decrease: outpatient
# Source text: Patients having more advanced heart failure (HF): In some aspects, provided is a method of treating a patient having more advanced HF by administering omecamtiv mecarbil as described herein. More advanced HF, also referred to as severe HF, refractory HF, or Stage D HF, can be determined based on a number of criteria recognized in the medical field. In some embodiments, more advanced HF refers to the published criteria from the 2018 ESC-HFA position statement (European journal of heart failure. 2018; 20:1505-1535). For the ESC-HFA criteria, patients were required to have all of 1) NYHA class III-IV symptoms, 2) a left ventricular ejection fraction 30%, 3) 2 or more hospitalizations for HF within the prior 12 months, and 4) evidence of severe functional impairment as defined by cardiopulmonary exercise testing or 6-minute walk test. In some embodiments, the hospitalization criteria is modified to one HF hospitalization within the prior 6 months In some embodiments, more advanced HF refers to patients having all of 1) NYHA class III-IV symptoms, 2) a left ventricular ejection fraction 30%, and 3) 1 or more hospitalizations for HF within the prior 6 months.
# Baseline characteristics for patients classified as more advanced HF compared to those without were evaluated using appropriate summary statistics. Outcomes for patients with or without more advanced HF were compared using Cox proportional hazards models and Kaplan-Meier curves. […] Absolute event rates were described using rate per 100 patient-years. As a sensitivity analysis, the event rates and treatment effect of omecamtiv mecarbil for patients was assessed by specific advanced HF criteria met, as well as the total number of criteria met. For quality-of-life data as assessed by the Kansas City Cardiomyopathy Questionnaire Total Symptom Score (KCCQ TSS), linear regression adjusted for baseline scores was used to compare treatment effects of omecamtiv mecarbil compared to placebo. Safety and tolerability data for patients with advanced HF vs. those without were summarized using descriptive statistics. P value ≤0.05 was considered statistically significant for all analyses.
# [1] = Advanced HF, week 0 to 24, OM vs placebo
# [2] = Less Advanced Heart Failure, OM group
# [3] = Less Advanced Heart Failure, OM vs placebo
# [4] = More Advanced Heart Failure, OM group
# [5] = More Advanced Heart Failure, OM vs placebo
smiles,measurement,setting,value
COC(=O)N1CCN(Cc2cccc(NC(=O)Nc3ccc(C)nc3)c2F)CC1 [omecamtiv mecarbil],Creatinine,"Advanced HF, OM group, week 24",1.37 ± 0.55 mg/dL
same,NT-proBNP,"Advanced HF, OM group, week 24","1837 [856, pg/ml"
same,Systolic BP,"Advanced HF, OM group, week 24",116.7 ± 17.3 mm Hg
same,NT-proBNP (Ratio),[1],0.86
same,Troponin I (Ratio),[1],1.30
same,All-cause Death (%),[2],(23%)
same,All-cause Death Rate,[2],12.4 per 100 patient years
same,All-cause Death n/N,[2],692/3014
same,HF Hosp as 1st Primary Event (%),[2],(24%)
same,HF Hosp as 1st Primary Event Rate,[2],15.0 per 100 patient years
same,HF Hosp as 1st Primary Event n/N,[2],722/3014
same,Heart Failure Hospitalization (%),[2],(25%)
same,Heart Failure Hospitalization Rate,[2],15.4 per 100 patient years
same,Heart Failure Hospitalization n/N,[2],746/3014
same,Primary Outcome (%),[2],(34%)
same,Primary Outcome Rate,[2],21.1 per 100 patient years
same,Primary Outcome n/N,[2],1013/3014
same,Urgent Outpatient Visit as 1st Primary Event (%),[2],(2%)
same,Urgent Outpatient Visit as 1st Primary Event Rate,[2],1.1 per 100 patient years
same,Urgent Outpatient Visit as 1st Primary Event n/N,[2],52/3014
same,All-cause Death ARR,[3],0.6 per 100 patient years
same,All-cause Death HR (95% CI),[3],"1.05 (0.94, 1.17);"
same,Heart Failure Hospitalization ARR,[3],−0.1 per 100 patient years
same,Heart Failure Hospitalization HR (95% CI),[3],"1.01 (0.91, 1.12);"
same,Primary Outcome ARR,[3],0.2 per 100 patient years
same,Primary Outcome HR (95% CI),[3],"0.99 (0.91, 1.08);"
same,All-cause Death (%),[4],(34%)
same,All-cause Death Rate,[4],20.1 per 100 patient years
same,All-cause Death n/N,[4],365/1081
same,HF Hosp as 1st Primary Event (%),[4],(35%)
same,HF Hosp as 1st Primary Event Rate,[4],25.9 per 100 patient years
same,HF Hosp as 1st Primary Event n/N,[4],385/1106
same,Heart Failure Hospitalization (%),[4],(36%)
same,Heart Failure Hospitalization Rate,[4],26.2 per 100 patient years
same,Heart Failure Hospitalization n/N,[4],385/1081
same,Primary Endpoint (%),[4],(46%)
same,Primary Endpoint Rate,[4],34.3 per 100 patient years
same,Primary Endpoint n/N,[4],510/1106
same,Urgent Outpatient Visit as 1st Primary Event (%),[4],(2%)
same,Urgent Outpatient Visit as 1st Primary Event Rate,[4],1.2 per 100 patient years
same,Urgent Outpatient Visit as 1st Primary Event n/N,[4],18/1106
same,All-cause Death ARR,[5],1.5 per 100 patient years
same,All-cause Death HR (95% CI),[5],"0.92 (0.80, 1.06);"
same,Heart Failure Hospitalization ARR,[5],5.2 per 100 patient years
same,Heart Failure Hospitalization HR (95% CI),[5],"0.84 (0.73, 0.96);"
same,Primary Endpoint ARR,[5],8.3 per 100 patient years
same,Primary Endpoint HR (95% CI),[5],"0.80 (0.71, 0.90);"
same,NT-proBNP,"Non-Advanced HF, OM group, week 24","1274 [531, pg/ml"
same,NT-proBNP (Ratio),"Non-Advanced HF, week 0 to 24, OM vs placebo",0.91
same,"KCCQ total symptom score (TSS), increase",advanced HF,1.1
same,"KCCQ total symptom score (TSS), decrease",advanced HF,1.7
same,Myocardial infarctions,"human, in vivo",3.8%
same,Serious adverse events related to ventricular tachyarrhythmias,"human, in vivo",7.9%
same,Strokes,"human, in vivo",1.6%
same,Treatment emergent serious adverse events,"human, in vivo",67%
same,Circulating cardiac troponin,in vivo,small increase
same,Creatinine,in vivo,1.29 ± 0.49 mg/dL
same,"Heart rate lowering, difference in change vs placebo",in vivo,1.9 beats/minute
same,Systolic BP,in vivo,118.4 ± 16.8 mm Hg
same,Troponin I (Ratio),in vivo,1.24
same,NT-proBNP,"more advanced HF population, result in words",significant decrease
same,"KCCQ total symptom score (TSS), increase",non-advanced HF,3.3
same,"KCCQ total symptom score (TSS), decrease",non-advanced HF,0.2
same,"Cardiovascular mortality, hazard ratio",patients with less advanced HF,1.10
same,"Absolute risk reduction, primary endpoint",patients with more advanced HF,8.3 events/100 patient-years
same,"Cardiovascular mortality, hazard ratio",patients with more advanced HF,0.88
same,"Primary endpoint, hazard ratio",patients with more advanced HF,0.80
same,"Relative risk reduction, primary endpoint",patients with more advanced HF,20%
same,"Primary endpoint, hazard ratio",patients without more advanced HF,0.99
same,NNT,"primary endpoint, patients with more advanced HF",12
